Data reported in patent US8748481B2, “Method for treating gastrointestinal disorder” (Sucampo AG, priority 2004, dated 2014).
Marks after values point to notes of the source that are not given here.

Test system: subjects with irritable bowel syndrome (IBS)
Assay: IBS QOL questionnaire, 12-week double-blind randomized study (Example 7)
Format: in vivo, human
Set-up: key to IBS QOL Overall scaled score, Mean / IBS QOL Dysphoria scaled score, Mean / IBS QOL Interference with Activity scaled score, Mean / IBS QOL Body Image scaled score, Mean / IBS QOL Health Worry scaled score, Mean / IBS QOL Food Avoidance scaled score, Mean / IBS QOL Social Reaction scaled score, Mean / IBS QOL Sexual scaled score, Mean / IBS QOL Relationship scaled score, Mean: IBS-QOL scaled score, 0–100
Conditions: for IBS QOL Body Image scaled score, Mean / IBS QOL Dysphoria scaled score, Mean / IBS QOL Food Avoidance scaled score, Mean / IBS QOL Health Worry scaled score, Mean / IBS QOL Interference with Activity scaled score, Mean / IBS QOL Overall scaled score, Mean / IBS QOL Relationship scaled score, Mean / IBS QOL Sexual scaled score, Mean / IBS QOL Social Reaction scaled score, Mean: Baseline; for IBS QOL Body Image, Mean change from Baseline / IBS QOL Dysphoria, Mean change from Baseline / IBS QOL Food Avoidance, Mean change from Baseline / IBS QOL Health Worry, Mean change from Baseline / IBS QOL Interference with Activity, Mean change from Baseline / IBS QOL Overall, Mean change from Baseline / IBS QOL Relationship, Mean change from Baseline / IBS QOL Sexual, Mean change from Baseline / IBS QOL Social Reaction, Mean change from Baseline: without LOCF
Method: A 12-week, double-blind, randomized study was performed to assess the safety and efficacy of oral 16 μg, 32 μg and 48 μg (total daily dose) of compound A to subjects with irritable bowel syndrome (IBS).
The patients answered the IBS QOL questionnaire at baseline, at week 4, Week 12 and at the end of study, and Questionnaire results were scored according to the IBS QOL User's Manual (A Quality of Life Measure for Persons with Irritable Bowel Syndrome (IBS-QOL): User's Manual and Scoring Diskette for United States Version. Seattle, Wash.: University of Washington; 1997). Scaled scores were used for all analyses, and scores were calculated according to the User's Manual as follows: Scaled Score=([Sum of IBS-QOL items−lowest possible score]/Possible raw score range))×100
Changes from baseline at week 4, week 12 and at the End of Study were assessed for the mean overall score and for the mean domain scores (dysphoria, interference with activity, body image, health worry, food avoidance, social reaction, sexual, and relationship).

CCCCC(F)(F)C(=O)CCC1C(O)CC(=O)C1CCCCCCC(=O)O (stereo not shown) [Compound A, 13,14-dihydro-15-keto-16,16-difluoro-PGE1]
Improvement from baseline in IBS-QOL compared among dose groups (16 μg group vs. 32 μg and 48 μg groups, every specific area and QOL overall): greatest improvement
IBS QOL Body Image scaled score, Mean (16 μg group): 41.42
IBS QOL Dysphoria scaled score, Mean (16 μg group): 53.19
IBS QOL Food Avoidance scaled score, Mean (16 μg group): 46.08
IBS QOL Health Worry scaled score, Mean (16 μg group): 37.74
IBS QOL Interference with Activity scaled score, Mean (16 μg group): 65.82
IBS QOL Overall scaled score, Mean (16 μg group): 55.66
IBS QOL Relationship scaled score, Mean (16 μg group): 67.81
IBS QOL Sexual scaled score, Mean (16 μg group): 64.95
IBS QOL Social Reaction scaled score, Mean (16 μg group): 63.97
IBS QOL Body Image, Mean change from Baseline (16 μg/day, End of Study): 20.41**
IBS QOL Dysphoria, Mean change from Baseline (16 μg/day, End of Study): 21.62**
IBS QOL Food Avoidance, Mean change from Baseline (16 μg/day, End of Study): 13.95**
IBS QOL Health Worry, Mean change from Baseline (16 μg/day, End of Study): 21.94**
IBS QOL Interference with Activity, Mean change from Baseline (16 μg/day, End of Study): 11.95**
IBS QOL Overall, Mean change from Baseline (16 μg/day, End of Study): 16.82**
IBS QOL Relationship, Mean change from Baseline (16 μg/day, End of Study): 14.28**
IBS QOL Sexual, Mean change from Baseline (16 μg/day, End of Study): 14.03**
IBS QOL Social Reaction, Mean change from Baseline (16 μg/day, End of Study): 13.78**
IBS QOL Body Image, Mean change from Baseline (16 μg/day, Week 4): 16.39**
IBS QOL Dysphoria, Mean change from Baseline (16 μg/day, Week 4): 17.85**
IBS QOL Food Avoidance, Mean change from Baseline (16 μg/day, Week 4): 13.89**
IBS QOL Health Worry, Mean change from Baseline (16 μg/day, Week 4): 22.41**
IBS QOL Interference with Activity, Mean change from Baseline (16 μg/day, Week 4): 10.87**
IBS QOL Overall, Mean change from Baseline (16 μg/day, Week 4): 14.7**
IBS QOL Relationship, Mean change from Baseline (16 μg/day, Week 4): 10.74**
IBS QOL Sexual, Mean change from Baseline (16 μg/day, Week 4): 13.33**
IBS QOL Social Reaction, Mean change from Baseline (16 μg/day, Week 4): 11.94**
IBS QOL Body Image, Mean change from Baseline (16 μg/day, Week 12): 22.32**
IBS QOL Dysphoria, Mean change from Baseline (16 μg/day, Week 12): 23.51**
IBS QOL Food Avoidance, Mean change from Baseline (16 μg/day, Week 12): 15.28**
IBS QOL Health Worry, Mean change from Baseline (16 μg/day, Week 12): 23.81**
IBS QOL Interference with Activity, Mean change from Baseline (16 μg/day, Week 12): 13.95**
IBS QOL Overall, Mean change from Baseline (16 μg/day, Week 12): 18.54**
IBS QOL Relationship, Mean change from Baseline (16 μg/day, Week 12): 15.47**
IBS QOL Sexual, Mean change from Baseline (16 μg/day, Week 12): 16.67**
IBS QOL Social Reaction, Mean change from Baseline (16 μg/day, Week 12): 14.58**
IBS QOL Body Image scaled score, Mean (32 μg group): 43.37
IBS QOL Dysphoria scaled score, Mean (32 μg group): 59.69
IBS QOL Food Avoidance scaled score, Mean (32 μg group): 52.21
IBS QOL Health Worry scaled score, Mean (32 μg group): 44.38
IBS QOL Interference with Activity scaled score, Mean (32 μg group): 69.82
IBS QOL Overall scaled score, Mean (32 μg group): 60.14
IBS QOL Relationship scaled score, Mean (32 μg group): 70.23
IBS QOL Sexual scaled score, Mean (32 μg group): 68.62
IBS QOL Social Reaction scaled score, Mean (32 μg group): 66.84
IBS QOL Body Image, Mean change from Baseline (32 μg/day, End of Study): 17.47**
IBS QOL Dysphoria, Mean change from Baseline (32 μg/day, End of Study): 14.77**
IBS QOL Food Avoidance, Mean change from Baseline (32 μg/day, End of Study): 10.79**
IBS QOL Health Worry, Mean change from Baseline (32 μg/day, End of Study): 17.61**
IBS QOL Interference with Activity, Mean change from Baseline (32 μg/day, End of Study): 8.2**
IBS QOL Overall, Mean change from Baseline (32 μg/day, End of Study): 12.58**
IBS QOL Relationship, Mean change from Baseline (32 μg/day, End of Study): 10.79**
IBS QOL Sexual, Mean change from Baseline (32 μg/day, End of Study): 10.23**
IBS QOL Social Reaction, Mean change from Baseline (32 μg/day, End of Study): 11.08**
IBS QOL Body Image, Mean change from Baseline (32 μg/day, Week 4): 15.28**
IBS QOL Dysphoria, Mean change from Baseline (32 μg/day, Week 4): 14.58**
IBS QOL Food Avoidance, Mean change from Baseline (32 μg/day, Week 4): 8.33*
IBS QOL Health Worry, Mean change from Baseline (32 μg/day, Week 4): 16.9**
IBS QOL Interference with Activity, Mean change from Baseline (32 μg/day, Week 4): 7.04*
IBS QOL Overall, Mean change from Baseline (32 μg/day, Week 4): 11.25**
IBS QOL Relationship, Mean change from Baseline (32 μg/day, Week 4): 7.64*
IBS QOL Sexual, Mean change from Baseline (32 μg/day, Week 4): 8.68**
IBS QOL Social Reaction, Mean change from Baseline (32 μg/day, Week 4): 9.9**
IBS QOL Body Image, Mean change from Baseline (32 μg/day, Week 12): 17.99**
IBS QOL Dysphoria, Mean change from Baseline (32 μg/day, Week 12): 15.25**
IBS QOL Food Avoidance, Mean change from Baseline (32 μg/day, Week 12): 11.36**
IBS QOL Health Worry, Mean change from Baseline (32 μg/day, Week 12): 19.44**
IBS QOL Interference with Activity, Mean change from Baseline (32 μg/day, Week 12): 9.42**
IBS QOL Overall, Mean change from Baseline (32 μg/day, Week 12): 13.08**
IBS QOL Relationship, Mean change from Baseline (32 μg/day, Week 12): 9.09*
IBS QOL Sexual, Mean change from Baseline (32 μg/day, Week 12): 10.98**
IBS QOL Social Reaction, Mean change from Baseline (32 μg/day, Week 12): 10.8**
IBS QOL Body Image scaled score, Mean (48 μg group): 45.69
IBS QOL Dysphoria scaled score, Mean (48 μg group): 56.81
IBS QOL Food Avoidance scaled score, Mean (48 μg group): 50.37
IBS QOL Health Worry scaled score, Mean (48 μg group): 44.07
IBS QOL Interference with Activity scaled score, Mean (48 μg group): 68.25
IBS QOL Overall scaled score, Mean (48 μg group): 59.85
IBS QOL Relationship scaled score, Mean (48 μg group): 75.18
IBS QOL Sexual scaled score, Mean (48 μg group): 71.94
IBS QOL Social Reaction scaled score, Mean (48 μg group): 66.81
IBS QOL Body Image, Mean change from Baseline (48 μg/day, End of Study): 14.24**
IBS QOL Dysphoria, Mean change from Baseline (48 μg/day, End of Study): 16.28**
IBS QOL Food Avoidance, Mean change from Baseline (48 μg/day, End of Study): 8.33**
IBS QOL Health Worry, Mean change from Baseline (48 μg/day, End of Study): 17.05**
IBS QOL Interference with Activity, Mean change from Baseline (48 μg/day, End of Study): 7.97**
IBS QOL Overall, Mean change from Baseline (48 μg/day, End of Study): 11.54**
IBS QOL Relationship, Mean change from Baseline (48 μg/day, End of Study): 6.01**
IBS QOL Sexual, Mean change from Baseline (48 μg/day, End of Study): 3.49
IBS QOL Social Reaction, Mean change from Baseline (48 μg/day, End of Study): 12.06**
IBS QOL Body Image, Mean change from Baseline (48 μg/day, Week 4): 13.24**
IBS QOL Dysphoria, Mean change from Baseline (48 μg/day, Week 4): 17.28**
IBS QOL Food Avoidance, Mean change from Baseline (48 μg/day, Week 4): 12.01**
IBS QOL Health Worry, Mean change from Baseline (48 μg/day, Week 4): 19.61**
IBS QOL Interference with Activity, Mean change from Baseline (48 μg/day, Week 4): 9.14**
IBS QOL Overall, Mean change from Baseline (48 μg/day, Week 4): 12.43**
IBS QOL Relationship, Mean change from Baseline (48 μg/day, Week 4): 6.87**
IBS QOL Sexual, Mean change from Baseline (48 μg/day, Week 4): 8.46**
IBS QOL Social Reaction, Mean change from Baseline (48 μg/day, Week 4): 8.82**
IBS QOL Body Image, Mean change from Baseline (48 μg/day, Week 12): 17.08**
IBS QOL Dysphoria, Mean change from Baseline (48 μg/day, Week 12): 20.83**
IBS QOL Health Worry, Mean change from Baseline (48 μg/day, Week 12): 23.33**
IBS QOL Interference with Activity, Mean change from Baseline (48 μg/day, Week 12): 10.95**
IBS QOL Overall, Mean change from Baseline (48 μg/day, Week 12): 14.8**
IBS QOL Relationship, Mean change from Baseline (48 μg/day, Week 12): 6.95**
IBS QOL Sexual, Mean change from Baseline (48 μg/day, Week 12): 5
IBS QOL Social Reaction, Mean change from Baseline (48 μg/day, Week 12): 14.17**
IBS-QOL change from baseline vs. zero (all groups (16, 32, 48 μg)): significantly different from Zero
